Measured values reported in patent EP4603105A1, “PHARMACEUTICAL COMPOSITION CONTAINING CYCLIC COMPOUND HAVING SELECTIVE KRAS INHIBITORY EFFECT AGAINST HRAS AND NRAS” (CHUGAI SEIYAKU KABUSHIKI KAISHA, priority 2022, dated 2024).
Where a SMILES comes first, the peptide text is derived from it. Bridges are numbered along the chain shown (N, C = ends). [ ]: non-standard residue; d: D form. The star is where a group is joined. hPhe(3,5-F2-4-CF3) = N[C@@H](CCc1cc(F)c(C(F)(F)F)c(F)c1)C(=O)O; hPhe(3-Cl-4-CF3) = N[C@@H](CCc1ccc(C(F)(F)F)c(Cl)c1)C(=O)O; NPrPhe(4-CF3) = CCCN[C@@H](Cc1ccc(C(F)(F)F)cc1)C(=O)O; NMeGly(cPent) = CN[C@H](C(=O)O)C1CCCC1; NMeD = CN[C@@H](CC(=O)O)C(=O)O; NMeL = CN[C@@H](CC(C)C)C(=O)O; αMeV = CC(C)[C@](C)(N)C(=O)O; hPip = O=C(O)[C@@H]1CCCCCN1; Morpholide = C1CN(*)CCO1; Ac5c = NC1(C(=O)O)CCCC1; Aze = O=C(O)[C@@H]1CCN1; Sar = CNCC(=O)O

Assays:
[1] = target: GDP-bound KRAS wild-type protein (Homo sapiens, UniProt P01116); assay: Binding to KRAS by surface plasmon resonance (SPR), dissociation constant KD
GDP-bound KRAS wild-type protein, sequence (P01116 1-188 isoform P01116-2): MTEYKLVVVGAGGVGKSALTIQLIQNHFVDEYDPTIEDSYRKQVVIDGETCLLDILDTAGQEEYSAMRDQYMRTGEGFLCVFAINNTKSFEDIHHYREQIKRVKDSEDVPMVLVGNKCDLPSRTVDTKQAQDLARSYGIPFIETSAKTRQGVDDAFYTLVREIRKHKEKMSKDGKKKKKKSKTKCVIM
Procedure, shortened: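 Recombinant RAS proteins bearing a biotinylated Avi tag and loaded with GDP served as the captured ligand, recaptured fresh every cycle. Binding responses were referenced to an uncoated surface and a buffer-only blank cycle. Dissociation constants were obtained by 1:1 model fitting at 30°C.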

[2] = target: GDP-bound NRAS wild-type protein (Homo sapiens, UniProt P01111); assay: Binding to NRAS by surface plasmon resonance (SPR), KD and KD ratio to KRAS
GDP-bound NRAS wild-type protein, sequence (P01111 whole entry): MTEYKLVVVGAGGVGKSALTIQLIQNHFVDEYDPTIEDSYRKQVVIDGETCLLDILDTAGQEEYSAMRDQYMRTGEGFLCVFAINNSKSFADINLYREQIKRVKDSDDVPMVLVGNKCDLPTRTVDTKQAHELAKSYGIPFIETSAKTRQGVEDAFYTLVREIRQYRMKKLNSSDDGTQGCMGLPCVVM
Procedure, shortened: (§1)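 Captured GDP-RAS (~100–300 RU) was exposed to increasing compound concentrations, 75 s per step, in running buffer with 10 µM GDP, 10 mM MgCl2 and 4% DMSO at pH 7.4.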

HRAS wild-type protein = HRAS wild-type protein (Homo sapiens, UniProt P01112); assay: Binding to HRAS by surface plasmon resonance (SPR), KD and KD ratio to KRAS
HRAS wild-type protein, sequence (P01112 whole entry): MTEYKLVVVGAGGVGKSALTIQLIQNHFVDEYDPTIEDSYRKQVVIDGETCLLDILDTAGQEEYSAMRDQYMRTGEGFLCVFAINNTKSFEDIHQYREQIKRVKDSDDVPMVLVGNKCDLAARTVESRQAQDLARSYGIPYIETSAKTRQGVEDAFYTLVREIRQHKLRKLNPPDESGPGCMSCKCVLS
Procedure, shortened: as §1

[3] = tested on: human lung cancer strain NCI-H441; type: cell-based
Procedure, shortened: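 Step one: dispense the test compound in serial DMSO dilutions. Step three: add the reagent and measure […].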

[4] = ratio of KD for GDP-bound NRAS wild-type protein to KD for KRAS
[5] = ratio of KD for HRAS wild-type protein to KD for KRAS
[6] = Single Cycle Kinetics, 1:1 binding model
[7] = ratio of the KD value with respect to GDP-bound NRAS wild-type protein to the KD value with respect to KRAS
[8] = ratio of the KD value with respect to HRAS wild-type protein to the KD value with respect to KRAS
[9] = ratio of KD value for GDP-bound NRAS wild-type protein to KD value for KRAS (SPR)
[10] = ratio of KD value for HRAS wild-type protein to KD value for KRAS (SPR)

SMILES | Kd ([1]; 1:1 binding model) [nM] | IC50 [3] [nM] | Kd [1, 6] [nM] | Kd ([1]; Single Cycle Kinetics) [nM] | NRAS /KRAS [2, 4] | HRAS /KRAS (HRAS wild-type protein; [5]) | NRAS /KRAS [2, 7] | HRAS /KRAS (HRAS wild-type protein; [8]) | NRAS /KRAS [2, 9] | HRAS /KRAS (HRAS wild-type protein; [10])
C#CC[C@H]1C(=O)N[C@@H]([C@@H](C)CC)C(=O)N(C)CC(=O)N(C)[C@H]2C/C=C\CCN(C2=O)[C@@H](Cc2ccc(C(F)(F)F)cc2)C(=O)N(C)CC(=O)N[C@@H](CCc2ccc(C(F)(F)F)c(OC)c2)C(=O)N2C[C@H](OCC)C[C@H]2C(=O)NC2(CCCC2)C(=O)N(C)[C@@H](C2CCC2)C(=O)N(C)[C@H](C(=O)N2CCCCC2)CC(=O)N1C [PP3131] | 2.8 | 157 | – | – | A (a compound having 10 or more and less than 20 is denoted as A) | A (a compound having 10 or more and less than 20 is denoted as A) | – | – | – | –
CCCN1C(=O)CN(C)C(=O)[C@@H]2CCN2C(=O)[C@H]([C@@H](C)CC)NC(=O)[C@@H]2CCCCCN2C(=O)C[C@@H](C(=O)N2CCOCC2)N(C)C(=O)[C@H](C2CCCC2)N(C)C(=O)C2(CCCC2)NC(=O)[C@@H]2CCCN2C(=O)[C@H](CCc2ccc(C(F)(F)F)c(Cl)c2)NC(=O)CN(C)C(=O)[C@@H]1Cc1ccc(C(F)(F)F)cc1 [PP0302] ([hPip]I[Aze][Sar][NPrPhe(4-CF3)][Sar][hPhe(3-Cl-4-CF3)]P[Ac5c][NMeGly(cPent)][NMeD]-Morpholide; lactam N-11) | 1.6 | 126 | – | – | B (a compound having 3 or more and less than 10 is denoted as B) | C (A compound having a KD ratio of 0.1 or more and less than 3 is denoted as C) | – | – | – | –
CC[C@H](C)[C@@H]1NC(=O)[C@H](CC(C)C)N(C)C(=O)C[C@@H](C(=O)N2CCOCC2)N(C)C(=O)[C@H](C2CCCC2)N(C)C(=O)C2(CCCC2)NC(=O)[C@@H]2CCCN2C(=O)[C@H](CCc2ccc(C(F)(F)F)c(Cl)c2)NC(=O)CN(C)C(=O)[C@H](Cc2ccc(F)cc2)N2C/C=C\CC[C@@H](C2=O)N(C)C(=O)CN(C)C1=O [PP0607] | – | 119 | 0.97 | – | – | – | C (A compound having a KD ratio of 0.1 or more and less than 3 is denoted as C) | B (a compound having 3 or more and less than 10 is denoted as B) | – | –
CCO[C@@H]1C[C@H]2C(=O)NC3(CCC3)C(=O)N(C)[C@@H](C3CCCC3)C(=O)N(C)[C@H](C(=O)N3CCOCC3)CC(=O)N(C)[C@@H](CC(C)C)C(=O)N[C@@H]([C@H](C)CC)C(=O)N(C)CC(=O)N(C)[C@H]3CCCCCN(C3=O)[C@@H](Cc3ccc(C(F)(F)F)cc3)C(=O)N(C)CC(=O)N[C@@H](CCc3cc(F)c(C(F)(F)F)c(F)c3)C(=O)N2C1 [PP0815] | – | 345 | – | 3.9 | B (a compound having 3 or more and less than 10 is denoted as B) | B (a compound having 3 or more and less than 10 is denoted as B) | – | – | – | –
CCO[C@@H]1C[C@H]2C(=O)NC3(CCC3)C(=O)N(C)[C@@H](C(CC)CC)C(=O)N(C)[C@H](C(=O)N3CCOCC3)CC(=O)N(C)[C@@H](CC3CC3)C(=O)N[C@@H]([C@@H](C)CC)C(=O)N(C)CC(=O)N(C)[C@H]3C/C=C\CCN(C3=O)[C@@H](Cc3ccc(F)cc3)C(=O)N(C)CC(=O)N[C@@H](CCc3cc(F)c(C(F)(F)F)c(F)c3)C(=O)N2C1 [PP1527] | – | 143 | 0.95 | – | – | – | – | – | A (a compound having 10 or more and less than 20 is denoted as A) | A (a compound having 10 or more and less than 20 is denoted as A)
CCCN1C(=O)CN(C)C(=O)[C@@H]2CCN2C(=O)[C@H]([C@@H](C)CC)NC(=O)[C@H](CC(C)C)N(C)C(=O)C[C@@H](C(=O)N2CCOCC2)N(C)C(=O)[C@H](C2CCCC2)N(C)C(=O)[C@](C)(C(C)C)NC(=O)[C@@H]2CCCN2C(=O)[C@H](CCc2cc(F)c(C(F)(F)F)c(F)c2)NC(=O)CN(C)C(=O)[C@@H]1Cc1ccc(C(F)(F)F)cc1 [PP0773] ([NMeL]I[Aze][Sar][NPrPhe(4-CF3)][Sar][hPhe(3,5-F2-4-CF3)]P[αMeV][NMeGly(cPent)][NMeD]-Morpholide; lactam N-11) | – | 170 | – | 4 | B (a compound having 3 or more and less than 10 is denoted as B) | B (a compound having 3 or more and less than 10 is denoted as B) | – | – | – | –

Compounds with a lower IC50 [3], results first:

Kd ([1]; 1:1 binding model) [nM] | IC50 [3] [nM] | Kd [1, 6] [nM] | Kd ([1]; Single Cycle Kinetics) [nM] | SMILES | NRAS /KRAS [2, 4] | HRAS /KRAS (HRAS wild-type protein; [5]) | NRAS /KRAS [2, 7] | HRAS /KRAS (HRAS wild-type protein; [8]) | NRAS /KRAS [2, 9] | HRAS /KRAS (HRAS wild-type protein; [10])
– | 46.3 | 2.4 | – | CC[C@H](C)[C@@H]1NC(=O)[C@H](CC(C)C)N(C)C(=O)C[C@@H](C(=O)N(C)C)N(C)C(=O)[C@H](C2CCCC2)N(C)C(=O)C2(CCCC2)NC(=O)[C@@H]2CCCN2C(=O)[C@H](CCc2ccc(C(F)(F)F)c(Cl)c2)NC(=O)CN(C)C(=O)[C@H](Cc2ccc(C(F)(F)F)cc2)N2CC=CCOC[C@H](C2=O)N(C)C(=O)CN(C)C1=O [PP0628] | – | – | C (A compound having a KD ratio of 0.1 or more and less than 3 is denoted as C) | C (A compound having a KD ratio of 0.1 or more and less than 3 is denoted as C) | – | –
– | 34.6 | 0.34 | – | CCCN(C)C(=O)[C@@H]1CC(=O)N(C)[C@@H](CC(C)C)C(=O)N[C@@H]([C@@H](C)CC)C(=O)N(C)CC(=O)N(C)[C@H]2C/C=C\CCN(C2=O)[C@@H](Cc2ccc(C(F)(F)F)cc2)C(=O)N(C)CC(=O)N[C@@H](CCc2cc(F)c(C(F)(F)F)c(F)c2)C(=O)N2C[C@H](OCC)C[C@H]2C(=O)NC2(COC2)C(=O)N(C)[C@@H](C2CCCC2)C(=O)N1C [PP1938] | – | – | AA (a compound having 20 or more is denoted as AA) | A (a compound having 10 or more and less than 20 is denoted as A) | – | –
0.41 | 22.2 | – | – | CCO[C@@H]1C[C@H]2C(=O)NC3(CC(C)(C)C3)C(=O)N(C)[C@@H](C3CCCC3)C(=O)N(C)[C@H](C(=O)N(C)C)CC(=O)N(C)[C@@H]([C@H](C)OC)C(=O)N[C@@H]([C@@H](C)CC)C(=O)N(C3CC3)CC(=O)N(C)[C@H]3C/C=C\CCN(C3=O)[C@@H](Cc3ccc(C)cc3)C(=O)N(C)CC(=O)N[C@@H](CCc3ccc(C(F)(F)F)c(Cl)c3)C(=O)N2C1 [PP3195] | A (a compound having 10 or more and less than 20 is denoted as A) | A (a compound having 10 or more and less than 20 is denoted as A) | – | – | – | –
0.17 | 14.4 | – | – | CCO[C@@H]1C[C@H]2C(=O)NC3(CC(C)(C)C3)C(=O)N(C)[C@@H](C(CC)CC)C(=O)N(C)[C@H](C(=O)N(C)C)CC(=O)N(C)[C@H]3CC/C=C/c4ccc(cc4)C[C@@H](C(=O)N(C)CC(=O)N[C@@H](CCc4cc(F)c(C(F)(F)F)c(F)c4)C(=O)N2C1)N1CC/C=C\C[C@@H](C1=O)N(C)C(=O)CN(C)C(=O)[C@H]([C@@H](C)CC)NC3=O [PP2586] | A (a compound having 10 or more and less than 20 is denoted as A) | B (a compound having 3 or more and less than 10 is denoted as B) | – | – | – | –
0.07 | 13.2 | – | – | CCO[C@@H]1C[C@H]2C(=O)NC3(CC(C)(C)C3)C(=O)N(C)[C@@H](C3CCCC3)C(=O)N(C)[C@H](C(=O)N(C)CC)CC(=O)N(C)[C@@H]([C@@H](C)OC)C(=O)N[C@@H]([C@@H](C)CC)C(=O)N(C)CC(=O)N(C)[C@H]3C/C=C\CCN(C3=O)[C@@H](Cc3ccc(C(F)(F)F)cc3)C(=O)N(C)CC(=O)N[C@@H](CCc3cc(F)c(C(F)(F)F)c(F)c3)C(=O)N2C1 [PP3160] | A (a compound having 10 or more and less than 20 is denoted as A) | A (a compound having 10 or more and less than 20 is denoted as A) | – | – | – | –
– | 10.5 | 0.17 | – | CC[C@H](C)[C@@H]1NC(=O)[C@H](CC(C)C)N(C)C(=O)C[C@@H](C(=O)N(C)C)N(C)C(=O)[C@H](C2CCCC2)N(C)C(=O)C2(CCCC2)NC(=O)[C@@H]2C[C@@H](C)CN2C(=O)[C@H](CCc2cc(F)c(C(F)(F)F)c(F)c2)NC(=O)CN(C)C(=O)[C@H](Cc2ccc(C)cc2)N2CC/C=C\C[C@@H](C2=O)N(C)C(=O)CN(C)C1=O [PP2189] | – | – | A (a compound having 10 or more and less than 20 is denoted as A) | A (a compound having 10 or more and less than 20 is denoted as A) | – | –
– | 9 | 0.33 | – | CCOC[C@H]1C(=O)N[C@@H]([C@@H](C)CC)C(=O)N(C2CC2)CC(=O)N(C)[C@H]2C/C=C\CCN(C2=O)[C@@H](Cc2ccc(C(F)(F)F)cc2)C(=O)N(C)CC(=O)N[C@@H](CCc2ccc(C(F)(F)F)c(OC)c2)C(=O)N2C[C@H](OCC)C[C@H]2C(=O)N(C)C2(CCC2)C(=O)N(C)[C@@H](C(CC)CC)C(=O)N(C)[C@H](C(=O)N(C)C)CC(=O)N1C [PP2315] | – | – | A (a compound having 10 or more and less than 20 is denoted as A) | A (a compound having 10 or more and less than 20 is denoted as A) | – | –
– | 3 | 0.031 | – | CCO[C@@H]1C[C@H]2C(=O)N(C)C3(CCC3)C(=O)N(C)[C@@H](C3CCCC3)C(=O)N(C)[C@H](C(=O)N(C)C)CC(=O)N(C)[C@@H](CC3CC3)C(=O)N[C@@H]([C@@H](C)CC)C(=O)N(C)CC(=O)N(C)[C@H]3C/C=C\CCN(C3=O)[C@@H](Cc3ccc(C)cc3)C(=O)N(C)CC(=O)N[C@@H](CCc3cc(F)c(C(F)(F)F)c(F)c3)C(=O)N2C1 [PP1795] | – | – | – | – | A (a compound having 10 or more and less than 20 is denoted as A) | B (a compound having 3 or more and less than 10 is denoted as B)
